This is an account of results in ChEMBL document CHEMBL5728389, “Nicotinyl alcohol ether derivative, preparation method therefor, and pharmaceutical composition and uses thereof” (2021).

A word on the IC50: it is the concentration that inhibits the measured activity by half.

The target in this test is Programmed cell death protein 1/Programmed cell death 1 ligand 1 (Homo sapiens, UniProt Q15116+Q9NZQ7). The test is described as follows: In Vitro Activity Assay: In vitro activity evaluation: Cisbio PD-1/PD-L1 binding assay kit was applied for the detection method of in vitro enzymology level.Screening Principles and Methods of PD-1/PD-L1 Small Molecule Inhibitors1) Principle: PD-1 protein is with HIS tag, and PD-1 ligand PD-L1 is with hFc tag. Eu labeled anti-hFc antibody and XL665 labeled anti-HIS antibody are combined with the above two label proteins respectively. After laser excitation, energy can be transferred from donor Eu to receptor XL665, allowing XL665 to glow. […] Reagents should be dispensed in the following order. For 384-well white ELISA plate, 2 μl of diluent or target compound diluted with diluent was added to each well, and then 4 μl of PD-1 protein and 4 μl of PD-L1 protein were added per well, incubated for 15 min at room temperature; and 10 μl of a mixture of anti-Tag1-Eu3+ and anti-Tag2-XL665 was added per well and incubated for 1 h to 4 h at room temperature and the fluorescence signals at 665 nm and 620 nm were measured with an Envison instrument. HTRF rate=(665 nm/620 nm)*104. 8-10 concentrations were detected for each compound and IC50 was calculated by Graphpad software. It counts as protein-complex assay.
Sequence of Programmed cell death protein 1/Programmed cell death 1 ligand 1 (Q15116 whole entry): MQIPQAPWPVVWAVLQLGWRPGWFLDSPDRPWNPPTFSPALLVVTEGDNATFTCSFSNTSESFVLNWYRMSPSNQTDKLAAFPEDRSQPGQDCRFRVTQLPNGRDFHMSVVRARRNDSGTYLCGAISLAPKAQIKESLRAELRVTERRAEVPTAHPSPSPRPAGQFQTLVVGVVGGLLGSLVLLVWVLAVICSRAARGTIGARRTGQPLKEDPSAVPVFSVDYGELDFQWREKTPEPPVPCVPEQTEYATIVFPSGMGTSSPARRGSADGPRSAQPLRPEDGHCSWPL
Sequence of Programmed cell death protein 1/Programmed cell death 1 ligand 1 (Q9NZQ7 whole entry): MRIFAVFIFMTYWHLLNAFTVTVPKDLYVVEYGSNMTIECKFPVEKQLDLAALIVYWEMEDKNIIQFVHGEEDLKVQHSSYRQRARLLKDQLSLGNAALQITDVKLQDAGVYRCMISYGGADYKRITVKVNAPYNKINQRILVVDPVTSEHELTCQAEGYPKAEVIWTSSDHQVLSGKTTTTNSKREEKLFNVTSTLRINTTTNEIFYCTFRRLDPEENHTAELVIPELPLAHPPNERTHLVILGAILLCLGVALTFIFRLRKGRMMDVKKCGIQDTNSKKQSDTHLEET
`O=C(O)[C@H](CO)NCc1cc(Cl)c(OCc2cccc(-c3ccccc3)c2Cl)cc1OCc1cccnc1`: the IC50 is 0.0401 µM.

Regarding `O=C(O)[C@H](CO)NCc1cc(Cl)c(OCc2cccc(-c3ccccc3)c2F)cc1OCc1cccnc1`, the IC50 is 0.134 µM.

As to `O=C(O)[C@H](CO)NCc1cc(Cl)c(OCc2cccc(-c3ccccc3)c2)cc1OCc1cccnc1`, the 50% inhibitory concentration (IC50) is 0.318 µM.

As to `NC(=O)C[C@H](NCc1cc(Cl)c(OCc2cccc(-c3ccccc3)c2Br)cc1OCc1cccnc1)C(=O)O`, the IC50 is 0.835 µM.

Regarding `C/C(=C\C(=O)O)NCc1cc(Cl)c(OCc2cccc(-c3ccccc3)c2Br)cc1OCc1cccnc1`, the IC50 is 0.00233 µM.

As to `O=S(=O)(O)CCNCc1cc(Cl)c(OCc2cccc(-c3ccccc3)c2Br)cc1OCc1cccnc1`, the half-inhibitory concentration (IC50) was 16.2 µM.

As for `OCCN(CCO)Cc1cc(Cl)c(OCc2cccc(-c3ccccc3)c2Br)cc1OCc1cccnc1`, the IC50 is 0.051 µM.

Regarding `OCCNCc1cc(Cl)c(OCc2cccc(-c3ccccc3)c2Br)cc1OCc1cccnc1`, the IC50 was 0.0538 µM.

Turning to `C[C@H](NCc1cc(Cl)c(OCc2cccc(-c3ccccc3)c2Br)cc1OCc1cccnc1)C(=O)O`, the IC50 was 0.00529 µM.
